≈ marks a conversion by molar mass, not a printed value.
How the values were obtained:
M. tuberculosis H37Rv [1] = test: Extracellular MIC, broth dilution with resazurin; type: cell-based; conditions: Mycobacterium tuberculosis, read-out: Mtb MIC
Description: MICs against the H37Rv strain were determined by broth dilution assay in Middlebrook 7H9 medium supplemented with 10% ADC. After incubating at 37°C for 6 days, 25-µL resazurin solution (one tablet in 30-mL sterile PBS) was added to each well. Following incubation at 37°C for two additional days, the lowest concentration of drug that inhibited 90% of resazurin conversion compared to internal DMSO control wells with no drug added was used to define MIC values.

recombinant InhA = recombinant InhA (Mycobacterium tuberculosis, UniProt P9WGR1); test: Inhibition of recombinant InhA; type: biochemical, M. tuberculosis
Description: GSK138 inhibited recombinant InhA with an IC50 of 0.04 µM. The minimum inhibitory concentration (MIC) was 1 µM against M. tuberculosis H37Rv, and GSK138 retained its activity against intracellular bacteria growing inside THP-1-derived macrophages in vitro (MIC 0.9 µM).

physchem [2] = type: physicochemical
Description: Solubility assays were performed using a miniaturized shake flask method. Stock solutions (10 mM) of each test compound were used to prepare calibration standards (10–220 μM) in DMSO and to spike (1:50) duplicate aqueous samples of FaSSIF (simulating fasting state biorelevant media, pH 6.5) with a final DMSO concentration of 2%. After shaking for 2 h at 25°C, the solutions were filtered and analyzed by means of high-performance liquid chromatography with diode-array detection (HPLC-DAD) (Agilent 1200 Rapid Resolution HPLC with a diode array detector). Best-fit calibration curves were constructed using the calibration standards, which were used to determine the aqueous sample solubility ([32]).

physchem [3] = test: physchem
[4] = test system: H37Rv-Luc inside THP-1-derived macrophages; test: Intracellular MIC in THP-1-derived macrophages, luciferase read-out; type: cell-based, M. tuberculosis; conditions: Mycobacterium tuberculosis, mean ± SD, read-out: Mtb intracell MIC
M. tuberculosis H37Rv [5] = type: in vivo, BALB/c mice

Chain of recombinant InhA (P9WGR1 whole entry, looked up): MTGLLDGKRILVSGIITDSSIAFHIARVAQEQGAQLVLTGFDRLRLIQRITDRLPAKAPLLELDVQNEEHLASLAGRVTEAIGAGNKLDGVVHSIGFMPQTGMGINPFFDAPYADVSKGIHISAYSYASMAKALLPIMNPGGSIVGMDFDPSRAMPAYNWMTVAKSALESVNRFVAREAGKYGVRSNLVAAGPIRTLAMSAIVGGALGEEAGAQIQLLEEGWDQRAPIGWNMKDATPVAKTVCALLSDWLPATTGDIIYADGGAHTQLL

## Cc1csc([C@](C)(O)c2nnc(Nc3cc(C)n(Cc4csc(C)n4)n3)s2)n1 [GSK138]
M. tuberculosis H37Rv [1]
  MIC: 1 µM (≈ 0.434 µg/mL)
Recombinant InhA
  IC50: 40 nM
Physchem [2]
  solubility in FaSSIF: high
Physchem [2]; pH 6.5
  solubility at 2 h: 140 to 320 µM (≈ 60.7 to 139 µg/mL)
Physchem [3]; pH 7.4, Chrom logD
  chromatographic logD: 3.39
Physchem [3]; pH 7.4, chrom logD
  chromatographic logD: 3.38
[4]
  MIC: 0.9 µM (≈ 0.39 µg/mL)
M. tuberculosis H37Rv [5]; experiment 3, GSK138 200 mg/kg
  effect of addition to PaL, R + GSK656, or RZ + GSK656: did not significantly increase the activity
M. tuberculosis H37Rv [5]; experiment 3, GSK138 200 mg/kg, 4 weeks (P < 0.01) and 8 weeks (P < 0.0001)
  effect of addition to BPaL, BPa or BPa + GSK656: significantly increased the activity
M. tuberculosis H37Rv [5]; experiment 4, 8 weeks of treatment
  effect of addition to BPa: additive effects
M. tuberculosis H37Rv [5]; experiment 5, 4 weeks of treatment
  effect of addition to BPaL on bactericidal activity: significantly increased the bactericidal activity

From publication PMC11539229 (Antimicrobial Agents and Chemotherapy, 2024)
